US20110166112A1, “METHOD FOR STIMULATING PLATELET PRODUCTION” (Eisai, Inc., priority 2009, published 2011)

Test system: subjects with chronic ITP
Assay: Combined 28-day and 6-month rollover studies of E5501: safety (TEAEs, serious TEAEs, thromboembolic events, neoplasms, liver toxicity, discontinuations)
Type: in vivo, human
Source text: Primary Endpoint: The primary endpoint was to assess the safety and tolerability to E5501, including AEs and clinical laboratory parameters, over the 6 additional months of treatment.
In this way, safety data reflect each subject's complete duration of exposure to E5501 starting with lead-in the previous study and continuing into the current study.
Following Protocol Amendment 4, the current study contained a flexible dose regimen; therefore, this study was considered to have an open-label, uncontrolled, single-arm design. […] This was the method used to assess safety. • Grouping method B was based on both treatment received and day 28 platelet response to study drug in Study the previous study. This was the method used for the analysis of efficacy for the FAS and the SE population.
Overall Adverse Events. […] The primary focus is on summary statistics for the entire safety population and provides an overall safety profile for E5501. The summary statistics for each group, e.g., lower ⅓, middle ⅓ and upper ⅓ average daily dose levels, is secondary and provides further safety information across the 3 dose levels.

[1] = Lower ⅓ dose (2.5-<8.85 mg), N=22
[2] = Middle ⅓ dose (≧8.85-<13.5 mg), N=22

O=C(Nc1nc(-c2cc(Cl)cs2)c(N2CCN(C3CCCCC3)CC2)s1)c1cnc(N2CCC(C(=O)O)CC2)c(Cl)c1 [E5501, 1-(3-chloro-5-{[4-(4-chlorothiophen-2-yl)-5-(4-cyclohexylpiperazin-1-yl)thiazol-2-yl]carbamoyl}pyridine-2-yl)piperidine-4-carboxylic acid]
tolerability and safety profile (6-month treatment period): well tolerated and demonstrated a favorable safety profile
Any Serious TEAE, n (%) of subjects (E5501 Total, N=64): 5 (7.8) n (%)
Serious TEAE Cerebrovascular accident, n (%) of subjects (E5501 Total, N=64): 1 (1.6) n (%)
Serious TEAE Chest pain, n (%) of subjects (E5501 Total, N=64): 1 (1.6) n (%)
Serious TEAE Diarrhoea, n (%) of subjects (E5501 Total, N=64): 1 (1.6) n (%)
Serious TEAE Haemorrhage intracranial, n (%) of subjects (E5501 Total, N=64): 1 (1.6) n (%)
Serious TEAE Lethargy, n (%) of subjects (E5501 Total, N=64): 1 (1.6) n (%)
Serious TEAE Mitral valve incompetence, n (%) of subjects (E5501 Total, N=64): 1 (1.6) n (%)
Serious TEAE Myocardial infarction, n (%) of subjects (E5501 Total, N=64): 1 (1.6) n (%)
Serious TEAE Nausea, n (%) of subjects (E5501 Total, N=64): 1 (1.6) n (%)
Serious TEAE Pelvic venous thrombosis, n (%) of subjects (E5501 Total, N=64): 1 (1.6) n (%)
Serious TEAE Platelet count decreased, n (%) of subjects (E5501 Total, N=64): 1 (1.6) n (%)
Serious TEAE Pneumonia, n (%) of subjects (E5501 Total, N=64): 1 (1.6) n (%)
Serious TEAE Pyrexia, n (%) of subjects (E5501 Total, N=64): 1 (1.6) n (%)
Serious TEAE Thrombocytopenia, n (%) of subjects (E5501 Total, N=64): 1 (1.6) n (%)
Serious TEAE Transient ischaemic attack, n (%) of subjects (E5501 Total, N=64): 1 (1.6) n (%)
Serious TEAE Vomiting, n (%) of subjects (E5501 Total, N=64): 2 (3.1) n (%)
Serious TEAE, SOC Blood and lymphatic system disorders, n (%) of subjects (E5501 Total, N=64): 1 (1.6) n (%)
Serious TEAE, SOC Cardiac disorders, n (%) of subjects (E5501 Total, N=64): 2 (3.1) n (%)
Serious TEAE, SOC Gastrointestinal disorders, n (%) of subjects (E5501 Total, N=64): 2 (3.1) n (%)
Serious TEAE, SOC General disorders and administration site conditions, n (%) of subjects (E5501 Total, N=64): 1 (1.6) n (%)
Serious TEAE, SOC Infections and infestations, n (%) of subjects (E5501 Total, N=64): 1 (1.6) n (%)
Serious TEAE, SOC Investigations, n (%) of subjects (E5501 Total, N=64): 1 (1.6) n (%)
Serious TEAE, SOC Nervous system disorders, n (%) of subjects (E5501 Total, N=64): 3 (4.7) n (%)
Serious TEAE, SOC Vascular disorders, n (%) of subjects (E5501 Total, N=64): 1 (1.6) n (%)
Discontinued 501-CL-004, PC increase to ≧500,000/mm^3 (Full Analysis Set, Responders in previous study): 0 n
Abdominal pain upper, n of subjects [1]: 0
Any Serious TEAE, n (%) of subjects [1]: 1 (4.5) n (%)
Any TEAE, % of subjects [1]: (90.9) %
Any TEAE, n of subjects [1]: 20
Arthralgia, % of subjects [1]: (4.5) %
Arthralgia, n of subjects [1]: 1
Asthenia, % of subjects [1]: (13.6) %
Asthenia, n of subjects [1]: 3
Back pain, % of subjects [1]: (4.5) %
Back pain, n of subjects [1]: 1
Constipation, n of subjects [1]: 0
Contusion, % of subjects [1]: (13.6) %
Contusion, n of subjects [1]: 3
Cough, % of subjects [1]: (4.5) %
Cough, n of subjects [1]: 1
Deaths, n of subjects [1]: 0
Diarrhoea, % of subjects [1]: (13.6) %
Diarrhoea, n of subjects [1]: 3
Dizziness, % of subjects [1]: (4.5) %
Dizziness, n of subjects [1]: 1
Dose interruption due to TEAE, % of subjects [1]: (13.6) %
Dose interruption due to TEAE, n of subjects [1]: 3
Dyspnoea, % of subjects [1]: (9.1) %
Dyspnoea, n of subjects [1]: 2
Ecchymosis, n of subjects [1]: 0
Epistaxis, % of subjects [1]: (18.2) %
Epistaxis, n of subjects [1]: 4
Fatigue, % of subjects [1]: (36.4) %
Fatigue, n of subjects [1]: 8
Gingival bleeding, % of subjects [1]: (4.5) %
Gingival bleeding, n of subjects [1]: 1
Headache, % of subjects [1]: (18.2) %
Headache, n of subjects [1]: 4
Insomnia, % of subjects [1]: (4.5) %
Insomnia, n of subjects [1]: 1
Migraine, n of subjects [1]: 0
Mouth haemorrhage, n of subjects [1]: 0
Nausea, n of subjects [1]: 0
Pain in extremity, % of subjects [1]: (9.1) %
Pain in extremity, n of subjects [1]: 2
Petechiae, % of subjects [1]: (13.6) %
Petechiae, n of subjects [1]: 3
Platelet count increased, % of subjects [1]: (9.1) %
Platelet count increased, n of subjects [1]: 2
Serious TEAE Cerebrovascular accident, n (%) of subjects [1]: 0 n (%)
Serious TEAE Chest pain, n (%) of subjects [1]: 0 n (%)
Serious TEAE Diarrhoea, n (%) of subjects [1]: 0 n (%)
Serious TEAE Haemorrhage intracranial, n (%) of subjects [1]: 0 n (%)
Serious TEAE Lethargy, n (%) of subjects [1]: 0 n (%)
Serious TEAE Mitral valve incompetence, n (%) of subjects [1]: 0 n (%)
Serious TEAE Myocardial infarction, n (%) of subjects [1]: 0 n (%)
Serious TEAE Nausea, n (%) of subjects [1]: 0 n (%)
Serious TEAE Pelvic venous thrombosis, n (%) of subjects [1]: 0 n (%)
Serious TEAE Platelet count decreased, n (%) of subjects [1]: 0 n (%)
Serious TEAE Pneumonia, n (%) of subjects [1]: 0 n (%)
Serious TEAE Pyrexia, n (%) of subjects [1]: 0 n (%)
Serious TEAE Thrombocytopenia, n (%) of subjects [1]: 1 (4.5) n (%)
Serious TEAE Transient ischaemic attack, n (%) of subjects [1]: 0 n (%)
Serious TEAE Vomiting, n (%) of subjects [1]: 0 n (%)
Serious TEAE, % of subjects [1]: (4.5) %
Serious TEAE, SOC Blood and lymphatic system disorders, n (%) of subjects [1]: 1 (4.5) n (%)
Serious TEAE, SOC Cardiac disorders, n (%) of subjects [1]: 0 n (%)
Serious TEAE, SOC Gastrointestinal disorders, n (%) of subjects [1]: 0 n (%)
Serious TEAE, SOC General disorders and administration site conditions, n (%) of subjects [1]: 0 n (%)
Serious TEAE, SOC Infections and infestations, n (%) of subjects [1]: 0 n (%)
Serious TEAE, SOC Investigations, n (%) of subjects [1]: 0 n (%)
Serious TEAE, SOC Nervous system disorders, n (%) of subjects [1]: 0 n (%)
Serious TEAE, SOC Vascular disorders, n (%) of subjects [1]: 0 n (%)
Serious TEAE, n of subjects [1]: 1
Serious treatment-related TEAEs, % of subjects [1]: (4.5) %
Serious treatment-related TEAEs, n of subjects [1]: 1
Severe (grade 3-4) TEAEs, % of subjects [1]: (18.2) %
Severe (grade 3-4) TEAEs, n of subjects [1]: 4
Somnolence, n of subjects [1]: 0
Suspected drug-related AEs, % of subjects [1]: (59.1) %
Suspected drug-related AEs, n of subjects [1]: 13
Upper respiratory tract infection, % of subjects [1]: (9.1) %
Upper respiratory tract infection, n of subjects [1]: 2
Vomiting, % of subjects [1]: (4.5) %
Vomiting, n of subjects [1]: 1
Withdrawal due to TEAE, % of subjects [1]: (13.6) %
Withdrawal due to TEAE, n of subjects [1]: 3
Abdominal pain upper, n of subjects [2]: 0
Any Serious TEAE, n (%) of subjects [2]: 3 (13.6) n (%)
Any TEAE, % of subjects [2]: (100.0) %
Any TEAE, n of subjects [2]: 22
Arthralgia, % of subjects [2]: (18.2) %
Arthralgia, n of subjects [2]: 4
Asthenia, n of subjects [2]: 0
Back pain, % of subjects [2]: (9.1) %
Back pain, n of subjects [2]: 2
Constipation, % of subjects [2]: (13.6) %
Constipation, n of subjects [2]: 3
Contusion, % of subjects [2]: (13.6) %
Contusion, n of subjects [2]: 3
Cough, n of subjects [2]: 0
Deaths, n of subjects [2]: 0
Diarrhoea, % of subjects [2]: (4.5) %
Diarrhoea, n of subjects [2]: 1
Dizziness, % of subjects [2]: (4.5) %
Dizziness, n of subjects [2]: 1
Dose interruption due to TEAE, % of subjects [2]: (13.6) %
Dose interruption due to TEAE, n of subjects [2]: 3
Dyspnoea, % of subjects [2]: (13.6) %
Dyspnoea, n of subjects [2]: 3
Ecchymosis, % of subjects [2]: (9.1) %
Ecchymosis, n of subjects [2]: 2
Epistaxis, % of subjects [2]: (13.6) %
Epistaxis, n of subjects [2]: 3
Fatigue, % of subjects [2]: (31.8) %
Fatigue, n of subjects [2]: 7
Gingival bleeding, % of subjects [2]: (9.1) %
Gingival bleeding, n of subjects [2]: 2
Headache, % of subjects [2]: (40.9) %
Headache, n of subjects [2]: 9
Insomnia, % of subjects [2]: (13.6) %
Insomnia, n of subjects [2]: 3
Migraine, % of subjects [2]: (4.5) %
Migraine, n of subjects [2]: 1
Mouth haemorrhage, n of subjects [2]: 0
Nausea, % of subjects [2]: (9.1) %
Nausea, n of subjects [2]: 2
Pain in extremity, % of subjects [2]: (9.1) %
Pain in extremity, n of subjects [2]: 2
Petechiae, % of subjects [2]: (4.5) %
Petechiae, n of subjects [2]: 1
Platelet count increased, % of subjects [2]: (9.1) %
Platelet count increased, n of subjects [2]: 2
Serious TEAE Cerebrovascular accident, n (%) of subjects [2]: 0 n (%)
Serious TEAE Chest pain, n (%) of subjects [2]: 0 n (%)
Serious TEAE Diarrhoea, n (%) of subjects [2]: 0 n (%)
Serious TEAE Haemorrhage intracranial, n (%) of subjects [2]: 1 (4.5) n (%)
Serious TEAE Lethargy, n (%) of subjects [2]: 1 (4.5) n (%)
Serious TEAE Mitral valve incompetence, n (%) of subjects [2]: 0 n (%)
Serious TEAE Myocardial infarction, n (%) of subjects [2]: 1 (4.5) n (%)
Serious TEAE Nausea, n (%) of subjects [2]: 1 (4.5) n (%)
Serious TEAE Pelvic venous thrombosis, n (%) of subjects [2]: 1 (4.5) n (%)
Serious TEAE Platelet count decreased, n (%) of subjects [2]: 1 (4.5) n (%)
Serious TEAE Pneumonia, n (%) of subjects [2]: 1 (4.5) n (%)
Serious TEAE Pyrexia, n (%) of subjects [2]: 0 n (%)
Serious TEAE Thrombocytopenia, n (%) of subjects [2]: 0 n (%)
Serious TEAE Transient ischaemic attack, n (%) of subjects [2]: 1 (4.5) n (%)
Serious TEAE Vomiting, n (%) of subjects [2]: 1 (4.5) n (%)
Serious TEAE, % of subjects [2]: (13.6) %
Serious TEAE, SOC Blood and lymphatic system disorders, n (%) of subjects [2]: 0 n (%)
Serious TEAE, SOC Cardiac disorders, n (%) of subjects [2]: 1 (4.5) n (%)
Serious TEAE, SOC Gastrointestinal disorders, n (%) of subjects [2]: 1 (4.5) n (%)
Serious TEAE, SOC General disorders and administration site conditions, n (%) of subjects [2]: 0 n (%)
Serious TEAE, SOC Infections and infestations, n (%) of subjects [2]: 1 (4.5) n (%)
Serious TEAE, SOC Investigations, n (%) of subjects [2]: 1 (4.5) n (%)
Serious TEAE, SOC Nervous system disorders, n (%) of subjects [2]: 2 (9.1) n (%)
Serious TEAE, SOC Vascular disorders, n (%) of subjects [2]: 1 (4.5) n (%)
Serious TEAE, n of subjects [2]: 3
Serious treatment-related TEAEs, % of subjects [2]: (4.5) %
Serious treatment-related TEAEs, n of subjects [2]: 1
Severe (grade 3-4) TEAEs, % of subjects [2]: (22.7) %
Severe (grade 3-4) TEAEs, n of subjects [2]: 5
Somnolence, n of subjects [2]: 0
Suspected drug-related AEs, % of subjects [2]: (68.2) %
Suspected drug-related AEs, n of subjects [2]: 15
Upper respiratory tract infection, % of subjects [2]: (4.5) %
Upper respiratory tract infection, n of subjects [2]: 1
